Consider 4 compounds from article PMC7532004, “Site-specific effects of neurosteroids on GABAA receptor activation and desensitization” (eLife, 2020).

The target of this test is T1, α1(N408A/Y411F)β3 GABAAR (UniProt P28472+P62813, N434A/Y437F).
T1 construct: expressed in transfected cells; host or cells: HEK293S GnTI- (ATCC CRL-3022), transient
Kind of test: [3H]muscimol binding to HEK cell membranes, α1 intrasubunit site mutant. Further details: species or system rat α1, human β3. The note with it: for Emax (% of control) of [3H]muscimol binding: 100% means no effect; for Bmax of [3H]muscimol binding isotherm in the presence of the modulator: etomidate 100 μM, 3α5αP 30 μM, KK148 30 μM, control 0.90 ± 0.18. How it is done: The human α1 and β3 GABAAR subunits were subcloned into pcDNA3 for molecular manipulations and cRNA synthesis. Using QuikChange Site-Directed Mutagenesis Kit (Agilent Technologies, Santa Clara, CA), a FLAG tag was first added to the α1 subunit then an 8xHis tag was added to generate the following His-FLAG tag tandem ([…]), inserted between the fourth and fifth residues of the mature peptide. The α1 and β3 subunits were then transferred into the pcDNA4/TO and pcDNA5/TO vectors (Thermo Fisher Scientific), respectively, for tetracycline inducible expression. Transient expression was done using the GABAAR subunits rat α1FLAG ([Ueno et al., 1996]) and human β3 obtained from Geoffrey White (Neurogen, Branford, CT), each were subcloned into pcDNA3 for molecular manipulations and cRNA synthesis. Point mutations were generated using the QuikChange Site-Directed Mutagenesis Kit (Agilent) and the coding region was fully sequenced prior to use. The cDNAs were linearized with XbaI (NEB Labs, Ipswich, MA), and the cRNAs were generated using T7 mMessage mMachine (Ambion, Austin, TX).
[^3H]muscimol-binding assays were performed using a previously described method ([Chen et al., 2019]). […] Assay tubes were incubated for 1 hr on ice in the dark. […] Membranes were collected on Whatman/GF-C glass filter papers using a Brandel cell harvester (Gaithersburg, MD). To perform [^3H]muscimol binding isotherms, 100 μg/ml aliquots of membrane protein were incubated with 0.3 nM–1 μM [^3H]muscimol for 1 hr on ice in the dark. The specific activity for [^3H]muscimol concentrations from 30 nM to 1 μM was reduced to 2 Ci/mmol by dilution with nonradioactive muscimol. The membranes were collected on Whatman/GF-B glass filter papers using a vacuum manifold. […] For [^3H]muscimol-binding experiments examining competitive interactions between neurosteroids, the combined neurosteroids (0.3 μM 3α5αP or 3 μM KK148 ±30 μM KK150) or the same volume of dimethyl sulfoxide (DMSO) were added to the membranes which were then incubated with 3 nM [^3H]muscimol on ice for 1 hr. Time courses of neurosteroid [^3H]muscimol binding enhancement were examined by adding 10 µM of neurosteroids (3α5αP, 3β5αP) to membranes that had been fully equilibrated with 3 nM [^3H]muscimol for 1 hr on ice; binding was then measured as a function of time at 1, 3, 10, 30, 60 min. The membranes were collected on Whatman/GF-B glass filter papers using a vacuum manifold. Radioactivity bound to the filters was measured by liquid scintillation spectrometry using Bio-Safe II (Research Products International, Mount Prospect, IL).

Setting [1] is: α1(N408A/Y411F)β3, 3 nM [3H]muscimol.

Read-outs that look alike come from different tables or passages of the source.

T1 sequence (P62813 28-455 N434A/Y437F): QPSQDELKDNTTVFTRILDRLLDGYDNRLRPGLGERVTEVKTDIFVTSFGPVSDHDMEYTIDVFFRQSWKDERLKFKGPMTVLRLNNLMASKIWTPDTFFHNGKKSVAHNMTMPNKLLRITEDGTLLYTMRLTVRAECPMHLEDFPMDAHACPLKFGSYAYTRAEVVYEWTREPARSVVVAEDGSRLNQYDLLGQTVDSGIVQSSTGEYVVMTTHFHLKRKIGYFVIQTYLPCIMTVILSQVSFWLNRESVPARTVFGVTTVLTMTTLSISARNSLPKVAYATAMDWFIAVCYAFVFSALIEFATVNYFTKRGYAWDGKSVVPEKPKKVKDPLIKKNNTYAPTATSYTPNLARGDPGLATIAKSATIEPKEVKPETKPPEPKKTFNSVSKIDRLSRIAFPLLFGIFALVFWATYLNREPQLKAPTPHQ
T1 sequence (P28472 26-473): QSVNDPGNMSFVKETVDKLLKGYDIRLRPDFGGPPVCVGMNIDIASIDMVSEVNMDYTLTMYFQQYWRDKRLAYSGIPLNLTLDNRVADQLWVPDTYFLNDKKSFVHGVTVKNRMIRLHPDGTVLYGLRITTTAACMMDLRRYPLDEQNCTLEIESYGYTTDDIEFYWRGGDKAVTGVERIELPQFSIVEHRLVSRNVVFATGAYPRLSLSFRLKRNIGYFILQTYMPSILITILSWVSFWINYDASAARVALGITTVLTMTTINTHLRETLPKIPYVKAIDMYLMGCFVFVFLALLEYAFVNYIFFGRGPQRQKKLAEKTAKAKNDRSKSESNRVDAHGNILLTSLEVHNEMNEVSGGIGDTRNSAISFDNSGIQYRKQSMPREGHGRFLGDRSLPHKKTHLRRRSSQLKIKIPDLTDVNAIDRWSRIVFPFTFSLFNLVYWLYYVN

Regarding `NCc1cc(=O)[nH]o1` [muscimol], where the note is “α1(N408A/Y411F)β3”, the “Bmax of [3H]muscimol binding isotherm” value is reported as 0.9 ± 0.1 (*P < 0.01 vs. WT) pmol/mg. In addition, under “α1(N408A/Y411F)β3, read-out: Kd of [3H]muscimol binding isotherm”, the Kd (as a rule, the constant that tells how readily two partners part at equilibrium) was 60.7 ± 7.5 nM.

For the compound `CC(=O)[C@H]1CC[C@H]2[C@@H]3CC[C@H]4C[C@@H](O)CC[C@]4(C)[C@H]3CC[C@]12C` [3β5αP, epi-allopregnanolone], the EC50 (as a rule, the concentration that produces a half-maximal response) was 610 ± 260 nM. In addition, under setting [1], the “Hill slope for modulation of [3H]muscimol binding” value (shortened to “Hill slope for modulation”) is recorded as 2.25 ± 0.92 and the “Emax (% of control) of [3H]muscimol binding” value is on record as “**124.3 ± 2.6 % of control”.

In turn, `CC(=O)[C@H]1CC[C@H]2[C@@H]3CC[C@H]4C[C@H](O)CC[C@]4(C)[C@H]3CC[C@]12C` [3α5αP, allopregnanolone] yielded an EC50 of 2300 nM. Moreover, under setting [1], the “Hill slope for modulation” value was determined as 0.87 ± 0.44 and the “Emax (% of control) of [3H]muscimol binding” value is on record as “**146.0 ± 9.3 % of control”. Where the note is “α1(N408A/Y411F)β3”, the “Bmax of [3H]muscimol binding isotherm in the presence of the modulator” value came out at 0.93 ± 0.16 pmol/mg. For the same compound, the “Decrease of enhancement of [3H]muscimol binding by mutation” value (α1 intrasubunit site mutation vs WT) was ~ 80%.

For `C#CCCO[C@H]1CC[C@H]2[C@@H]3CC[C@H]4CC5(CC[C@]4(C)[C@H]3CC[C@]12C)N=N5` [KK148], under setting [1], the “Hill slope for modulation” value was determined as 0.73 ± 0.23 and the “Emax (% of control) of [3H]muscimol binding” value is “**161.7 ± 3.5 % of control”. The 50% effective concentration (EC50) (α1(N408A/Y411F)β3, 3 nM [3H]muscimol, read-out: EC50 for modulation of [3H]muscimol binding) worked out at 1630 ± 530 nM. Also, the “Bmax of [3H]muscimol binding isotherm in the presence of the modulator” value (α1(N408A/Y411F)β3) is reported as 0.85 ± 0.22 pmol/mg.
